# Reference: patent US11773086B2, “Fungal modulators” (TRUSTEES OF BOSTON UNIVERSITY, priority 2020, dated 2023)
# Test system: FLC-resistant Candida auris
# Experiment: Checkerboard (dose-response matrix) with fluconazole, FICI
# Assay type: cell-based
# Conditions: fractional inhibitory concentration index for enhancement of FLC activity in FLC-resistant Candida auris; <0.5 strong synergy, 2 = no synergy
# Procedure: Generally, the synergy is measured by determining the fractional inhibitory concentration (FIC) value of the combination. […] FIC values for both agents in a particular square/well are calculated in this way followed by determination of the FIC index (sum of the FICs of each agent in the particular square/well).
# Compound potency was assessed alone by dose response assays or in combination with another compound by dose-response matrixes in 96-well plates, or 384-well, flat-bottom, microtiter plates (Corning) as previously described. Plates were incubated at 30° C. for the indicated time period. Growth was quantified by measuring OD600 and corrected for medium background. All strains were assessed in biological duplicate experiments with technical duplicates. Growth was normalized to untreated controls and plotted as a heat map using Java TreeView 1.1.6r4. For dose-response matrixes fractional inhibitory concentration index at 90% growth inhibition (FICI90) was calculated as previously described. The fluconazole Etest susceptibility assay was performed as previously described. Briefly, 200 μL of 5×10^6 cells/mL were plated on YPD agar (1%) plates with either with 50 μM azoffluxin or containing DMSO.
row,Structure (SMILES),FICI
1,"CC(C)C[C@@H](O)COc1cc2c(cc1C1(c3cc4c(cc3OC[C@H](O)CC(C)C)OCCO4)C(=O)Nc3c(F)cccc31)OCCO2 [CMLD013654, 7-fluoro-3,3-bis(7-(((2R)-2-hydroxy-4-methylpentyl)oxy)-2,3-dihydro-1,4-benzodioxin-6-yl)-2,3-dihydro-1H-indol-2-one]",0.255
2,"C=C(C)C[C@@H](O)COc1cc2c(cc1C1(c3cc4c(cc3OCC)OCO4)C(=O)Nc3cc(F)ccc31)OCO2 (stereo partly drawn) [RT-162S-015, 3-(6-ethoxybenzo[d][1,3]dioxol-5-yl)-6-fluoro-3-(6-(((R)-2-hydroxy-4-methylpent-4-en-1-yl)oxy)benzo[d][1,3]dioxol-5-yl)indolin-2-one]",0.133
3,"CC(C)C[C@@H](O)COc1cc2c(cc1C1(c3cc4c(cc3OC[C@H](O)CC(C)C)OCO4)C(=O)Nc3c(F)cccc31)OCO2 [CMLD013623, 7-fluoro-3,3-bis(6-(((R)-2-hydroxy-4-methylpentyl)oxy)benzo[d][1,3]dioxol-5-yl)indolin-2-one]",0.036
4,"C=CCC[C@@H](O)COc1cc2c(cc1C1(c3cc4c(cc3OC[C@H](O)CCC=C)OCO4)C(=O)Nc3cc(Br)ccc31)OCO2 [CMLD012452, 6-bromo-3,3-bis(6-(((R)-2-hydroxyhex-5-en-1-yl)oxy)benzo[d][1,3]dioxol-5-yl)indolin-2-one]",0.266
5,"C=CC[C@@H](O)COc1cc2c(cc1C1(c3cc4c(cc3OC[C@H](O)CC=C)OCO4)C(=O)Nc3cc(F)ccc31)OCO2 [CMLD012400, 6-fluoro-3,3-bis(6-(((R)-2-hydroxypent-4-en-1-yl)oxy)benzo[d][1,3]dioxol-5-yl)indolin-2-one]",0.130
6,"C=CCC[C@@H](O)COc1cc2c(cc1C1(c3cc4c(cc3OC[C@H](O)CCC=C)OCO4)C(=O)Nc3cccc(Br)c31)OCO2 [CMLD012453, 4-bromo-3,3-bis(6-(((R)-2-hydroxyhex-5-en-1-yl)oxy)benzo[d][1,3]dioxol-5-yl)indolin-2-one]",0.257
7,"CCC[C@@H](O)COc1cc2c(cc1C1(c3cc4c(cc3OCC)OCO4)C(=O)Nc3c(F)cccc31)OCO2 (stereo partly drawn) [CMLD013655, 3-(6-ethoxy-2H-1,3-benzodioxol-5-yl)-7-fluoro-3-(6-(((2R)-2-hydroxypentyl)oxy)-2H-1,3-benzodioxol-5-yl)-2,3-dihydro-1H-indol-2-one]",0.113
8,"CCC[C@@H](O)COc1cc2c(cc1C1(c3cc4c(cc3OC[C@H](O)CCC)OCO4)C(=O)Nc3cc(F)ccc31)OCO2 [CMLD012439, 6-fluoro-3,3-bis(6-(((R)-2-hydroxypentyl)oxy)benzo[d][1,3]dioxol-5-yl)indolin-2-one]",0.130
9,"C=CCC[C@@H](O)COc1cc2c(cc1C1(c3cc4c(cc3OC[C@H](O)CCC=C)OCO4)C(=O)Nc3ccc(F)cc31)OCO2 [CMLD012450, 5-fluoro-3,3-bis(6-(((R)-2-hydroxyhex-5-en-1-yl)oxy)benzo[d][1,3]dioxol-5-yl)indolin-2-one]",0.266
10,"CC(C)(C)C[C@@H](O)COc1cc2c(cc1C1(c3cc4c(cc3OC[C@H](O)CC(C)(C)C)OCO4)C(=O)Nc3ccc(Br)cc31)OCO2 [CMLD013652, 5-bromo-3,3-bis(6-(((2R)-2-hydroxy-4,4-dimethylpentyl)oxy)-2H-1,3-benzodioxol-5-yl)-2,3-dihydro-1H-indol-2-one]",0.175
11,"CC(C)(C)C[C@@H](O)COc1cc2c(cc1C1(c3cc4c(cc3OC[C@H](O)CC(C)(C)C)OCO4)C(=O)Nc3cc(F)ccc31)OCO2 [CMLD012443, 6-fluoro-3,3-bis(6-(((R)-2-hydroxy-4,4-dimethylpentyl)oxy)benzo[d][1,3]dioxol-5-yl)indolin-2-one]",0.068
12,"CC(C)C[C@@H](O)COc1cc2c(cc1C1(c3cc4c(cc3OC[C@H](O)CC(C)C)OCCO4)C(=O)Nc3cc(F)ccc31)OCCO2 [CMLD013648, 6-fluoro-3,3-bis(7-(((2R)-2-hydroxy-4-methylpentyl)oxy)-2,3-dihydro-1,4-benzodioxin-6-yl)-2,3-dihydro-1H-indol-2-one]",0.255
